Like-named read-outs stand apart in the source and are kept apart here.

We go through 7 compounds from patent publication US6391870B2, “Pyrrolo [2,1-b][1,3]benzothiazepines with atypical antipsychotic activity” (Sigma-Tau Industrie Farmaceutiche Riunite S.p.A., priority 1998, dated 2002).

Series [1] has as its target muscarinic receptors. It counts as binding. The settings on record: rat cortex, [3H]QNB; average of three determinations.
Series [2] deals with 5-MeO-DMT-induced head twitches in mouse. The series can be described thus: Antagonism of 5-MeO-DMT-induced head twitches in mouse. As to conditions: s.c., 30 min before 5-MeO-DMT 10 mg/Kg s.c. It counts as in vivo.
The target in series [3] is T1, DA-1 receptors (Rattus norvegicus, UniProt P18901).
T1 construct: striatum for DA-1 and DA-2 receptors; from tissue; host or cells: rat striatum membranes
T1 sequence (P18901 whole entry): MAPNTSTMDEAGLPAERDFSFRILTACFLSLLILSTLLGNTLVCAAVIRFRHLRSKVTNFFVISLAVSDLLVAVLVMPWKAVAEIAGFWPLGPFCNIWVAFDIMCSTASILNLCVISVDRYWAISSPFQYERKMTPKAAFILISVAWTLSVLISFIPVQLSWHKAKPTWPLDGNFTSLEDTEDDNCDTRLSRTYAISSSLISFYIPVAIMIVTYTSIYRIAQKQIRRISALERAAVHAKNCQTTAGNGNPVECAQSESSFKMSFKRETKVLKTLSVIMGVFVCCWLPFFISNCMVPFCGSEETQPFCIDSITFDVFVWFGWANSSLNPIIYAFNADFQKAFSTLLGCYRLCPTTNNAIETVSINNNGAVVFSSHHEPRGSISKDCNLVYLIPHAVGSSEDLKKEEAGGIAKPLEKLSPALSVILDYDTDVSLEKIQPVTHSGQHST
The series can be described thus: [3H]SCH 23390 binding to DA-1 receptors (rat striatum). As to conditions: for Ki: [3H]SCH 23390, average ± standard error, read-out: D1 affinity Ki.

Series [4] deals with T2, DA-2 receptors (Rattus norvegicus, UniProt P61169).
T2 construct: striatum for DA-1 and DA-2 receptors; from tissue; host or cells: rat striatum membranes
T2 sequence (P61169 whole entry): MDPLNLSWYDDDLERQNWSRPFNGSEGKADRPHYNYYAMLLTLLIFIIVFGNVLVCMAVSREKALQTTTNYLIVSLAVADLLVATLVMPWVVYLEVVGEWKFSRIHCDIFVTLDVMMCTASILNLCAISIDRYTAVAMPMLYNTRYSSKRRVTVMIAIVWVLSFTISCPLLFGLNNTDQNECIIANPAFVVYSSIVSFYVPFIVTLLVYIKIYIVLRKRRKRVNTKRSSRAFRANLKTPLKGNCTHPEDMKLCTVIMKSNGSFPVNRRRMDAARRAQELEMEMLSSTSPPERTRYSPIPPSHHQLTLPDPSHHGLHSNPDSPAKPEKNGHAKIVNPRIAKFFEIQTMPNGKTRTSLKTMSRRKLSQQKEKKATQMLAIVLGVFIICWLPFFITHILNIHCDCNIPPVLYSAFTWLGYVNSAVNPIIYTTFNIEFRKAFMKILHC
The series can be described thus: [3H]Spiperone binding to DA-2 receptors (rat striatum). The settings on record: stereoselectivity between enantiomers.

For series [5], the target named is T3, DA-3 receptors (Rattus norvegicus, UniProt P19020).
T3 construct: olfactory tubercle for DA-3 receptors; from tissue; host or cells: rat olfactory tubercle membranes
T3 sequence (P19020 whole entry): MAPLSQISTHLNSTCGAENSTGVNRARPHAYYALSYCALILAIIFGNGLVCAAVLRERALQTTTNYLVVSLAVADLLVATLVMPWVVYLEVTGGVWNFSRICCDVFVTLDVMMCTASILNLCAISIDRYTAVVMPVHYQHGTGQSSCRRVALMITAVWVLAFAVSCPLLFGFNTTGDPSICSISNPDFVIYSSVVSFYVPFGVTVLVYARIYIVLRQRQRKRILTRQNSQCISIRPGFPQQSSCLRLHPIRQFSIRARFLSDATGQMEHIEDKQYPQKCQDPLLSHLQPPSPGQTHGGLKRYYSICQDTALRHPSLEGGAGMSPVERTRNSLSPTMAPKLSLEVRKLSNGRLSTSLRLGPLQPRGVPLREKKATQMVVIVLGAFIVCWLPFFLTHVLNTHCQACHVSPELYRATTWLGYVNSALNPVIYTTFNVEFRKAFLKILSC
The series can be described thus: [3H]-7-OH-DPAT binding to DA-3 receptors (rat olfactory tubercle). As to conditions: for Ki: [3H]-7-OH-DPAT, average ± standard error.

In series [6] the test system is catalepsy in rats. The settings on record: male, Wistar, rat, in vivo, sc.

A word on the Ki: it is the dissociation constant of the complex between target and ligand, obtained from inhibition or displacement. The compound `CN1CCN(C2Cn3cccc3Sc3ccc(Cl)cc32)CC1` (racemic) [ST1455, (±)-7-chloro-9-(4-methylpiperazin-1-yl)-9,10-dihydropyrrolo[2,1-b][1,3]benzothiazepine] gave a Ki in series [1] of 418 nM.
As to `CN1CCN(C2Cn3cccc3Sc3ccc(F)cc32)CC1` (racemic) [ST1456, (±)-7-fluoro-9-(4-methylpiperazin-1-yl)-9,10-dihydropyrrolo[2,1-b][1,3]benzothiazepine], the affinity in series [1], expressed as Ki, was 2220 nM.
On the same count and under the same terms, next, `CN1CCN(C2Cn3cccc3Sc3ccc(Cl)cc32)CC1` (single isomer, unassigned) [ST1461]: 514 nM.
Same read-out and setting: then `CN1CCN(C2Cn3cccc3Sc3ccc(Cl)cc32)CC1` (single isomer, unassigned; (+)) [ST1460, (+)-7-chloro-9-(4-methylpiperazin-1-yl)-9,10-dihydropyrrolo[2,1-b][1,3]benzothiazepine], with 286 nM.
On to `CN1CCN([C@@H]2Cc3ccccc3Sc3ccc(Cl)cc32)CC1` [R-(−)-Octoclothepin], for which, in series [2], the “Dosage that determines 50% of the Head-twitching inhibition induced by 5-MeO-DMT” value was found to be 0.089 mg/kg. Besides, the “D1 pKi” value in series [3] is listed as 8.69. Further, the inhibitory constant (Ki) was found to be 2.02 ± 0.17 nM in series [3], 155 nM in series [1] and 20.9 nM in series [5] (read-out: D3 affinity Ki). The “Times less affinity for the D2 receptor than the opposite enantiomer” value in series [4] is “approximately 10 times”. Moreover, the “D3 pKi” value in series [5] worked out at 7.68. Further, in series [6], the “Time in minutes of insurgence of catalepsy in 100% of the animals” value (“Time in minutes … in 100% of the animals” below) was found to be 120 min.
As to `CN1CCN(C2Cc3ccccc3Sc3ccc(Cl)cc32)CC1` (centres unmarked) [RS-Octoclothepin, 8-chloro-10-(4-methylpiperazino)-10,11-dihydrodibenzo[b,f]thiepin], the “D1 pKi” value in series [3] worked out at 8.64. Besides, the results for the Ki in series [3], in series [1] and in series [5] (read-out: D3 affinity Ki) were 2.28 ± 0.15 nM, 434 nM and 2.38 nM, respectively. In addition, the “D3 pKi” value in series [5] was found to be 8.62. In series [6], the “Time in minutes … in 100% of the animals” value stood at 120 min.
On to `CN1CCN([C@H]2Cc3ccccc3Sc3ccc(Cl)cc32)CC1` [S-(+)-Octoclothepin], for which the “D1 pKi” value in series [3] was determined as 8.71. Further, the Ki in series [3] was 1.97 ± 0.53 nM; in series [1] it was 749 nM; in series [5] (D3 affinity Ki), 0.75 nM. Also, the “Time in minutes … in 100% of the animals” value in series [6] came out at 300 min.
